Data on three compounds can be found in patent publication US11612567B2, “Ocular inserts comprising a covalently linked steroid dimer” (Ripple Therapeutics Corporation, priority 2018, dated 2023).

The subject of data set [1] is tissue response to the device. Kind of data set: Coating on a MIGS device inserted into the eye (Example 10). The settings on record: drug released over months to years. In kind it is in vivo. From the text:
Coating of Compound 1 is applied onto a MIGS device as described in the methods above.

Data set [2] can be described thus: Dexamethasone in the vitreous humour after intravitreal injection of cylinders. The settings on record: New Zealand white rabbits, intravitreal cylinders 30 G×1 mm, 30 G×6 mm, 23 G×6 mm. It is filed as in vivo.
Description: The cylinders were injected intravitreally into New Zealand white rabbits and dexamethasone was quantified in the vitreous humour at different time points.
A further data set concerns rat eyes. Kind of data set: Surface erosion of intravitreal implants in rat eyes, fundus microscopy. It is filed as in vivo. The settings on record: heat-molded cylinders injected intravitreally. On the procedure: The cylinders were injected intravitreally into rat eyes.
The conditions of data set [3]: 37° C.
Description: Heat-molded pellets from Compound 1 (˜1 mm×1 mm) were placed in 20 mL glass vials and 2 mL of release buffer (either 100% phosphate buffered saline (PBS), 1% fetal bovine serum (FBS) in PBS, or 100% FBS) was added. Samples were incubated at 37° C. on a shaker rotating at 115 rpm. After 1 day, 3 days, 7 days, and subsequently in alternating 3 and 4 day intervals (i.e., 1, 3, 7, 10, 14 days etc.), release buffer was sampled directly (PBS) or syringe filtered, proteins were precipitated with acetonitrile, and drug release products were extracted. The samples were analyzed by high performance liquid chromatography (HPLC) to quantify drug products. Cumulative drug release was calculated and plotted as a percentage of the total drug in each pellet released over time (FIG. 1E).
Drug release from the glassy state heat molded pellets was carried out in PBS and/or 100% FBS, as described in Example 1, for different time periods.
Drug release from the pellets (˜1 mm×1 mm and 1 mg of total mixture) was carried out in PBS as described in Example 1. Cumulative drug release was calculated and plotted as a percentage of the total drug released over time.
Data set [4] has as its system VEGF-induced retinal vascular leakage. Kind of data set: VEGF-induced retinal vascular leakage after intravitreal implantation, fundus microscopy and fluorescein angiography. It is filed as in vivo. The settings on record: Dutch belted rabbits, intravitreal 27 G and 30 G cylinders; VEGF at 1 week and 10 weeks post-implantation; versus sham injection. How it is done:
The cylinders were extruded with 27 G and 30 G nozzles to get diameters ˜0.2 mm and ˜0.12 mm respectively. The cylinders were cut to different lengths, ETO gas sterilized, and injected intravitreally into the eyes of Dutch belted rabbits. VEGF was injected intravitreally at 1 week and 10 weeks post-implantation to induce retinal vascular leakage. Sham injection was used as a negative control.

Data set [5] in a line: Intravitreal cylinders for inflammatory or neovascularization conditions (Example 9). It is filed as in vivo. The settings on record: cylinders injected into the vitreous humour. How it is done: Cylinders of Compound 1 are formed using methods described above. The cylinders are injected into the vitreous humour and release dexamethasone to the surrounding tissues including tissues in the anterior eye, the posterior eye, and surrounding tissues. […] The intravitreal implants release drug that may be used in subjects with diabetic macular edema, macular edema from retinal vein occlusion, uveitis, cystoid macular edema, post-surgical inflammation (e.g. cataract or glaucoma surgery), age-related macular degeneration, and other ocular conditions.

Data set [6] concerns post-surgical inflammation and infection. Nature of the data set: Intracameral implants of Compound 1 and 9 in subjects receiving ocular surgery (Example 21). The settings on record: intracameral implants of both compounds; dexamethasone and fusidic acid release over days to weeks to a few months. It is filed as in vivo. From the text:
Cylinders, pellets, or fibrous meshes of Compound 1 and 9 are formed using the methods described above. The implants are inserted intracamerally into subjects that are receiving an ocular surgical procedure.

In data set [7] the test system is endotoxin-induced inflammation in the eye. Nature of the data set: Endotoxin (LPS)-induced inflammation in the eye after intravitreal implantation, OCT vitreal cell count and retinal thickness. In kind it is in vivo. The settings on record: rat, intravitreal 23 G and 30 G implants; LPS 1 day (acute) or 60 days (sub-chronic) post-implantation. On the procedure: The implants were loaded into 23 G and 30 G needles respectively and were sterilized by ethylene oxide (ETO) gas. An acute study evaluating only the 23 G heat molded implants was performed and a sub-chronic study evaluating both implants followed. […] Inflammation in the eye was induced using an intravitreal injection of the endotoxin lipopolysaccharide (LPS) 1-day post-implantation for the acute study and 60 days post-implantation for the sub-chronic study. […] Optical coherence tomography (OCT) was used to image the eyes (FIG. 6E) and inflammation was assessed by quantifying the number of cells in the vitreous humour and the thickness of the retinal tissue measured from the OCT images.

Data set [8] relates to post-surgical inflammation in the eye. Kind of data set: Intracameral fiber mesh or cylinder after surgery (Example 12). In kind it is in vivo. The settings on record: steady release over several months, e.g., three months. From the text:
Fibers or cylinders are formed from Compound 1 according to the methods described above. The fibers are woven into a mesh and are placed into the eye of a subject having received surgery.

Data set [9] has the same test system. Kind of data set: Schlemm's canal fiber or tube implant after surgery (Example 11). In kind it is in vivo. The settings on record: release by surface erosion over weeks to months. From the text: A fiber or tube of Compound 1 is formed using the methods described above.
Data set [10] concerns intraocular pressure. Nature of the data set: Suprachoroidal insert of Compound 1 in a subject with glaucoma (Example 14). The settings on record: cylinder or tube as conduit from anterior chamber into suprachoroidal space; months to years. In kind it is in vivo. From the text:
A cylinder or tube of Compound 1 is formed using the methods described above. The implant is inserted into the eye of a subject with glaucoma to create a conduit from the anterior chamber into the suprachoroidal space.

The test system of data set [11] is inflammation or neovascularization. Nature of the data set: Micro- or nanoparticles injected into the suprachoroidal space (Example 13). In kind it is in vivo. The settings on record: release over months to years. How it is done: Micro- or nanoparticles of Compound 1 are formed using the methods described above. The particles are injected into the suprachoroidal space of a subject with an ocular condition associated with inflammation or neovascularization or as an adjunctive therapy to reduce inflammation associated with ocular surgery.

In data set [12] the test system is intraocular pressure. Nature of the data set: Intracameral implants of Compound 7 in subjects with glaucoma (Example 17). The settings on record: intracameral cylinders, pellets or fibrous meshes; anecortave release by surface erosion over months to years. In kind it is in vivo. From the text:
Cylinders, pellets, or fibrous meshes of Compound 7 are formed using the methods described above. The implants are inserted intracamerally into subjects with glaucoma.

Data set [13] has as its system intraocular pressure. Kind of data set: Suprachoroidal insert of Compound 7 in a subject with glaucoma (Example 18). It is filed as in vivo. The settings on record: cylinder or tube as conduit into suprachoroidal space, anecortave release; months to years. From the text:
A cylinder or tube of Compound 7 is formed using the methods described above. The implant is inserted into the eye of a subject with glaucoma to create a conduit from the anterior chamber into the suprachoroidal space.

The test system of data set [14] is post-surgical infection in the eye. Nature of the data set: Intracameral implants of Compound 9 in subjects receiving ocular surgery (Example 19). In kind it is in vivo. The settings on record: fusidic acid release over days to weeks to a few months. From the text: Cylinders, pellets, or fibrous meshes of Compound 9 are formed using the methods described above. The implants are inserted intracamerally into subjects that are receiving an ocular surgical procedure.

Regarding `C[C@@H]1C[C@H]2[C@@H]3CCC4=CC(=O)C=C[C@]4(C)[C@@]3(F)[C@@H](O)C[C@]2(C)[C@@]1(O)C(=O)COC(=O)OCCOCCOCCOC(=O)OCC(=O)[C@@]1(O)[C@H](C)C[C@H]2[C@@H]3CCC4=CC(=O)C=C[C@]4(C)[C@@]3(F)[C@@H](O)C[C@@]21C` [Compound 1, Dexamethasone-Triethylene Glycol-Dexamethasone], the “tissue response and fibrosis” value in data set [1] was “inhibit a tissue response to the device and reduce fibrosis”. For the same compound, in data set [2], the “dexamethasone concentration in the vitreous humour over time” value is “consistent dose of dexamethasone is released”. Further, the “erosion of the implant in the eye over time (fundus microscopy)” value with rat eyes was “surface erosion of the implant”. Besides, the “in vitro drug release, dose and duration” value in data set [3] (extruded cylinders 30 G×1 mm, 30 G×6 mm, 23 G×6 mm, PBS) was “roughly following surface erosion theory”. Further, in data set [3] (glassy state heat molded pellets ~1 mm×1 mm, PBS and/or 100% FBS), the “cumulative drug release plotted over time” value was “mostly linearly”. Besides, the “erosion of pellets over time (representative images)” value in data set [3] (heat-molded pellets ~1 mm×1 mm, 100% FBS) was “surface erosion over time”. The retinal vascular leakage entry in [4] was “inhibited VEGF-induced retinal vascular leakage”. In addition, in data set [5], the “duration of dexamethasone release by surface erosion” value is “months to years”. Moreover, in data set [6], the “post-surgical inflammation and infection” value is “reduce inflammation associated with the surgery and prevent infection”. For the same compound, the “inflammation in the eye (vitreal cell count and retinal thickness by OCT)” value in data set [7] was “inhibit endotoxin-induced inflammation in the eye”. In addition, the “inflammation in the eye” value in [8] was “Inflammation in the eye is reduced”. The post-surgical inflammation result in data set [9] was “prevent or reduce inflammation associated with the surgical procedure”. Moreover, in the data set on intraocular pressure [10], the intraocular pressure entry was “reduce intraocular pressure”. Further, in data set [11], the inflammation or neovascularization result was “reduces inflammation or neovascularization”.
“Anecortave-Triethylene Glycol-Anecortave [Compound 7]”: the intraocular pressure entry with intraocular pressure [12] is given as “lower intraocular pressure in the eye”; in the data set on intraocular pressure [13], “reduce intraocular pressure”.
With “Fusidic Acid-Triethylene Glycol-Fusidic Acid (carbonate ester) [Compound 9]”, the “post-surgical inflammation and infection” value in [6] was “reduce inflammation associated with the surgery and prevent infection”. The post-surgical infection result in data set [14] was “prevent infection”.
